# Reference: ChEMBL document CHEMBL3774368, “1,2,4-Triazolyl octahydropyrrolo[2,3-b]pyrroles: A new series of potent and selective dopamine D3 receptor antagonists” (Bioorg Med Chem, 2016)
# Key:
# [1] = target: T1, Cytochrome P450 3A4 (Homo sapiens, UniProt P08684); test: Inhibition of recombinant human CYP3A4 expressed in baculosomes preincubated for 10 mins followed by cofactor addition measured every minute for 10 mins using diethoxyflourescein as substrate by CYPEX assay
# [2] = target: T2, Cytochrome P450 1A2 (Homo sapiens, UniProt P05177); test: Inhibition of recombinant human CYP1A2 expressed in baculosomes preincubated for 10 mins followed by cofactor addition measured every minute for 10 mins using ethoxyresorufin as substrate by CYPEX assay
# T2 sequence (P05177 whole entry): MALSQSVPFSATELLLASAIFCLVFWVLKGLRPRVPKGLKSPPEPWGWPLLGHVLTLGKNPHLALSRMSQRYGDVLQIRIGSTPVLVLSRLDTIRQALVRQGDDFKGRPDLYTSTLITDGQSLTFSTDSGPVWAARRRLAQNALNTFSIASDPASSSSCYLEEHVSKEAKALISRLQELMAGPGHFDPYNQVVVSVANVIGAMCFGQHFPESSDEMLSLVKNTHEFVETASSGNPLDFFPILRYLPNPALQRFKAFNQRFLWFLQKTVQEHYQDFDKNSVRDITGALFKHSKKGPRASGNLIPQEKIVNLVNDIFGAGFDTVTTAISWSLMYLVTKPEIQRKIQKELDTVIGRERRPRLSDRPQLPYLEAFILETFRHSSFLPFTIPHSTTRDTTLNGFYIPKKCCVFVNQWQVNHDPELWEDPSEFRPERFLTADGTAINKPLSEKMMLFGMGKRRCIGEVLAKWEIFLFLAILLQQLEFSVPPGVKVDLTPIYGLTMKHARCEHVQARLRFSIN
# [3] = target: T3, D(2) dopamine receptor (Homo sapiens, UniProt P14416); test: Antagonist activity at human dopamine D2L receptor expressed in CHO cells assessed as inhibition of dopamine-mediated Ca+2 stimulation pretreated for 10 mins followed by addition of dopamine by fluo-4 AM dye-based FLIPR assay; type: cell-based
# [4] = target: T1, Cytochrome P450 3A4; test: Inhibition of recombinant human CYP3A4 expressed in baculosomes preincubated for 10 mins followed by cofactor addition measured every minute for 10 mins using 7-benzyloxyquinoline as substrate by CYPEX assay
# [5] = Efflux ratio of apparent permeability across basolateral to apical side in human Caco2 cells; type: ADME, cell-based; conditions: Caco-2
# [6] = target: T4, D(3) dopamine receptor (Homo sapiens, UniProt P35462); test: Antagonist activity at human dopamine D3 receptor expressed in CHO-K1 cell membranes after 90 mins by [35S]GTP-gamma-S binding assay in presence of 3 nM quinelorane
# [7] = target: Muscarinic acetylcholine receptor M3 (Homo sapiens, UniProt P20309); test: Antagonist activity at recombinant human muscarinic M3 receptor expressed in CHO-K1 cells assessed as inhibition of acetylcholine induced calcium mobilization preincubated for 10 mins followed by acetylcholine addition measured after 1 hr by fluo-4 AM dye-based FLIPR assay; type: functional, cell-based
# [8] = Fraction absorbed in portal vein cannulated Sprague-Dawley rat model; conditions: in vivo
# [9] = target: T4, D(3) dopamine receptor; test: Displacement of [3H]-spiperone from human dopamine D3 receptor expressed in CHO-K1 cell membranes after 90 mins by liquid scintillation counter method
# [10] = in vivo; conditions: Sprague-Dawley, rat, po
# [11] = Half life in portal vein cannulated Sprague-Dawley rat model; conditions: in vivo
# [12] = target: T3, D(2) dopamine receptor; test: Displacement of [3H]-spiperone from human dopamine D2 receptor expressed in CHO-K1 cell membranes after 120 mins by liquid scintillation counter method
# [13] = Clearance in portal vein cannulated Sprague-Dawley rat blood; conditions: whole blood
# [14] = Fraction unbound in Sprague-Dawley rat blood
# [15] = Volume of distribution at steady state in portal vein cannulated Sprague-Dawley rat model; conditions: in vivo
# [16] = target: T5, Muscarinic acetylcholine receptor M1 (Homo sapiens, UniProt P11229); test: Antagonist activity at recombinant human muscarinic M1 receptor expressed in CHO-K1 cells assessed as inhibition of acetylcholine induced calcium mobilization preincubated for 10 mins followed by acetylcholine addition measured after 1 hr by fluo-4 AM dye-based FLIPR assay; type: functional, cell-based
# T5 sequence (P11229 whole entry): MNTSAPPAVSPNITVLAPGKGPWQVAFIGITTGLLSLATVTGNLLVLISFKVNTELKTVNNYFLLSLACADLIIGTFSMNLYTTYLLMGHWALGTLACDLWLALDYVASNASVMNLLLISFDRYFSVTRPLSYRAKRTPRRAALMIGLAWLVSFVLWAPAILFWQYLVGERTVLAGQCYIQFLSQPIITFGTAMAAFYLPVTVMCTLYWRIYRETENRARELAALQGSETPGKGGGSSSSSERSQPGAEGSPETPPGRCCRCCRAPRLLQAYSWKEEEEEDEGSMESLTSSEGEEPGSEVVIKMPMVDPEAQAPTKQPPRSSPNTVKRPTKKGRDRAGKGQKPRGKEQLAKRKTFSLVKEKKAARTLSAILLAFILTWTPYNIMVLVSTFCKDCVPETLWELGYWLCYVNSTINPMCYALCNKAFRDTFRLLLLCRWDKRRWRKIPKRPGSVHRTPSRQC
# [17] = Apparent permeability across apical to basolateral side in human Caco2 cells; type: ADME, cell-based; conditions: Caco-2
# [18] = target: Cytochrome P450 2D6 (Homo sapiens, UniProt P10635); test: Inhibition of recombinant human CYP2D6 expressed in baculosomes preincubated for 10 mins followed by cofactor addition measured every minute for 10 mins using 4-methylaminomethyl-7-methoxycoumarin as substrate by CYPEX assay
# [19] = target: Cytochrome P450 2C19 (Homo sapiens, UniProt P33261); test: Inhibition of recombinant human CYP2C19 expressed in baculosomes preincubated for 10 mins followed by cofactor addition measured every minute for 10 mins using 3-butyryl-7-methoxycoumarin as substrate by CYPEX assay
# [20] = Fraction unbound in Sprague-Dawley rat brain
# [21] = target: Voltage-gated inwardly rectifying potassium channel KCNH2 (Homo sapiens, UniProt Q12809); test: Inhibition of human ERG tail current expressed in HEK293 cells after 5 mins by patch clamp assay
# [22] = in vitro; conditions: rat, liver microsomes, CLH
# [23] = in vivo; conditions: Sprague-Dawley, rat
# [24] = target: Cytochrome P450 2C9 (Homo sapiens, UniProt P11712); test: Inhibition of recombinant human CYP2C9 expressed in baculosomes preincubated for 10 mins followed by cofactor addition measured every minute for 10 mins using 7-methoxy-4-trifluoromethylcoumarin-3-acetic acid as substrate by CYPEX assay
# [25] = in vitro; conditions: human, liver microsomes, CLH
# [26] = Permeability across apical to basolateral side in human Caco2 cells; conditions: Caco-2, permeability
# [27] = Solubility of compound; type: physicochemical
# [28] = in vitro; conditions: human, Caco-2
# [29] = target: T6, D(4) dopamine receptor (Homo sapiens, UniProt P21917); test: Binding affinity to dopamine D4 receptor (unknown origin)
# T6 sequence (P21917 whole entry): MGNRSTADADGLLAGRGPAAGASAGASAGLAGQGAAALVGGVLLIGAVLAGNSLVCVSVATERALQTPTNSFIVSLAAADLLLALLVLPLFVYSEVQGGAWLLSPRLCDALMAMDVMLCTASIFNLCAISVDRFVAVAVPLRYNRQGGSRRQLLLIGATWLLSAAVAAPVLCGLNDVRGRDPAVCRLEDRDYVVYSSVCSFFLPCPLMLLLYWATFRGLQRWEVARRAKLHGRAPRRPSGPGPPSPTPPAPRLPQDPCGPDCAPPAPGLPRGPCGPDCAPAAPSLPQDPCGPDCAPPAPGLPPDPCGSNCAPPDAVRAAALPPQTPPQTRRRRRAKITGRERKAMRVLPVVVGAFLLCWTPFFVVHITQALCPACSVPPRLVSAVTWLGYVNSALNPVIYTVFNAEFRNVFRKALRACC
# T3 sequence (P14416 whole entry): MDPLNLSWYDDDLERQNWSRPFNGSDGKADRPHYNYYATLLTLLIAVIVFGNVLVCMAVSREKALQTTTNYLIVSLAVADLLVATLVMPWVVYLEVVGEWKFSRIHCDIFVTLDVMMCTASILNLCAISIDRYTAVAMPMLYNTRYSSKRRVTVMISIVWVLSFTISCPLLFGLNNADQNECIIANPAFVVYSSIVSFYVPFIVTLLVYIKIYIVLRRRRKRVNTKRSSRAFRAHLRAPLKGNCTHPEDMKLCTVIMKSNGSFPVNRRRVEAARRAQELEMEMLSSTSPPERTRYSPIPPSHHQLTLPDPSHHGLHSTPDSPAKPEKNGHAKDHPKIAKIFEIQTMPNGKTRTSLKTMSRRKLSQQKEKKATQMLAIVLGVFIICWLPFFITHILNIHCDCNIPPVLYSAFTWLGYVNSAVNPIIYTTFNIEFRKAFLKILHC
# T1 sequence (P08684 whole entry): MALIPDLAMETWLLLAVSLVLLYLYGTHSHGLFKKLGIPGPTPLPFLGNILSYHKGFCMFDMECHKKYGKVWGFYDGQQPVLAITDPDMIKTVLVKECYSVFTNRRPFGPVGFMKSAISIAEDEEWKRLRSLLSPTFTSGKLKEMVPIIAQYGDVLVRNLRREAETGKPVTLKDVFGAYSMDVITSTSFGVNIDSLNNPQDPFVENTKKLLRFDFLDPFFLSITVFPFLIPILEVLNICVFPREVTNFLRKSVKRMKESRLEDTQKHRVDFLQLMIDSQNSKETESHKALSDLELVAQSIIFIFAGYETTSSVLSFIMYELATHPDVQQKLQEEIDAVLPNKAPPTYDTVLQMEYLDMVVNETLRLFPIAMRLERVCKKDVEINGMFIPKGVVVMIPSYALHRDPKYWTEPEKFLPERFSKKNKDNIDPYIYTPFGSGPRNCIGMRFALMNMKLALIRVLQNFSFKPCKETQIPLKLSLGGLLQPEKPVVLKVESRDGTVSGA
# T4 sequence (P35462 whole entry): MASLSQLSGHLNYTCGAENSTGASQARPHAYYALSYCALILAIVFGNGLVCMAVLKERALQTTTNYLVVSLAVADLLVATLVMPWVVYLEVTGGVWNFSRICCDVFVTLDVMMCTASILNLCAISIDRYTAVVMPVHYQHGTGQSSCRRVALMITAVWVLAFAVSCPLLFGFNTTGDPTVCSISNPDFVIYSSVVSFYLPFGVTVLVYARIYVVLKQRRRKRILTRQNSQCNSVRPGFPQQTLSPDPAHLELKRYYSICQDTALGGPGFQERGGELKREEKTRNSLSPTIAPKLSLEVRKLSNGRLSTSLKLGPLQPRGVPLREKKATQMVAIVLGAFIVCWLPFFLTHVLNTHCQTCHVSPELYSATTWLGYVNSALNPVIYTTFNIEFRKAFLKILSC
# Cytochrome P450 2C19, sequence (P33261 whole entry): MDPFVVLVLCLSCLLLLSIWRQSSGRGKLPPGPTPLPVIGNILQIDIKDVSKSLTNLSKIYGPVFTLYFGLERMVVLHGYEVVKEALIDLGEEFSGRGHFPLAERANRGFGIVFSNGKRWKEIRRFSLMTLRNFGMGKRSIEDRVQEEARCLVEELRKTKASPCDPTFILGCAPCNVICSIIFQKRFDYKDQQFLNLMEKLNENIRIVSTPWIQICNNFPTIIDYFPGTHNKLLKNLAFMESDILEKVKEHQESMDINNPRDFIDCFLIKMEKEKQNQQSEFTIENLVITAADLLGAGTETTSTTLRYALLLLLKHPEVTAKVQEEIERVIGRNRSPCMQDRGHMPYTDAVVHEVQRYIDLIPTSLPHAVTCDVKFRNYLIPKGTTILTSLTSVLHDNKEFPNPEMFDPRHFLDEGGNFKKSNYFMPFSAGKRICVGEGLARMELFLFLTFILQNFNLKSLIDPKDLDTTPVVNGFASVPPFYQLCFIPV
# Voltage-gated inwardly rectifying potassium channel KCNH2, sequence (Q12809 whole entry): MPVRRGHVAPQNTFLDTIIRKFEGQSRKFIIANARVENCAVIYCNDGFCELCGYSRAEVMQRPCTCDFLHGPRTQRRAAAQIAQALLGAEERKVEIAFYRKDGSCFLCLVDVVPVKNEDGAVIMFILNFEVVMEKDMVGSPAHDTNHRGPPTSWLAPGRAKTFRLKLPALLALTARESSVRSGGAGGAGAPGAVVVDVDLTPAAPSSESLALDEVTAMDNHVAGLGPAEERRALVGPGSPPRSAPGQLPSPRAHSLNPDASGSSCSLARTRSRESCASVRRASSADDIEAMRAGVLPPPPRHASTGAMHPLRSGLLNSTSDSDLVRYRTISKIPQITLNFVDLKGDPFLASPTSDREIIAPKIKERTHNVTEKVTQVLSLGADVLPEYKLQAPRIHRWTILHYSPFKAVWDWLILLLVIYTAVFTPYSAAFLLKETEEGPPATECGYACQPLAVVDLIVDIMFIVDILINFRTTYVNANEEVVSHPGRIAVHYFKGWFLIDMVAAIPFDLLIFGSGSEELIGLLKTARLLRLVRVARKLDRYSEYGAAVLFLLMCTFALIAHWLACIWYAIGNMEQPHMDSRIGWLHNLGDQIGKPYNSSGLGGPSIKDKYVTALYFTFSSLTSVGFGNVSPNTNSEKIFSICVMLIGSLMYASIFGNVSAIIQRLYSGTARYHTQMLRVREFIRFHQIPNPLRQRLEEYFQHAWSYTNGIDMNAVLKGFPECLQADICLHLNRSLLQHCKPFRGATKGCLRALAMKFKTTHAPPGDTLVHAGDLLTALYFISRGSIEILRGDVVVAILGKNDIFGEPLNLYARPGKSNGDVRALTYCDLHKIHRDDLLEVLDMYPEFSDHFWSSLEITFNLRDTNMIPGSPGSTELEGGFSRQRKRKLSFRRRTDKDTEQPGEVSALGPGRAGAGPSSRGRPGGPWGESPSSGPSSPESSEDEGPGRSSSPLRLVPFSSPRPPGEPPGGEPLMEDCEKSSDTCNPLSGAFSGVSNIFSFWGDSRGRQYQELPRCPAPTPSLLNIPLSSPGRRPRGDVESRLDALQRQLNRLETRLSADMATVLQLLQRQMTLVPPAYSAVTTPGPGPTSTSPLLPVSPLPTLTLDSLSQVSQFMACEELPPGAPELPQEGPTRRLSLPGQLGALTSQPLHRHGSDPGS
# Cytochrome P450 2D6, sequence (P10635 whole entry): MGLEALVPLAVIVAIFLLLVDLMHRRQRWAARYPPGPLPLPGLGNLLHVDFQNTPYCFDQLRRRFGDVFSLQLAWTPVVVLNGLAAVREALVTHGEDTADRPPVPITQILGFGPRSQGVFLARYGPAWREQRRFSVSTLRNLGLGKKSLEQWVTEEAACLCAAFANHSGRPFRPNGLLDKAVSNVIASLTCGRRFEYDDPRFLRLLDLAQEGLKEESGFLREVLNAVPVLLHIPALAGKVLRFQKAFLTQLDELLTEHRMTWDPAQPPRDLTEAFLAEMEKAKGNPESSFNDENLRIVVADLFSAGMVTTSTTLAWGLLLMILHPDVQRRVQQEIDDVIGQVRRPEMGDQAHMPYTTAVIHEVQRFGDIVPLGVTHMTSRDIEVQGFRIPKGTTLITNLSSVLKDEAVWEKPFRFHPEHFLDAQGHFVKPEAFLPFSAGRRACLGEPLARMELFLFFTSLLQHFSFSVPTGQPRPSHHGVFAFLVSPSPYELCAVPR
# Cytochrome P450 2C9, sequence (P11712 whole entry): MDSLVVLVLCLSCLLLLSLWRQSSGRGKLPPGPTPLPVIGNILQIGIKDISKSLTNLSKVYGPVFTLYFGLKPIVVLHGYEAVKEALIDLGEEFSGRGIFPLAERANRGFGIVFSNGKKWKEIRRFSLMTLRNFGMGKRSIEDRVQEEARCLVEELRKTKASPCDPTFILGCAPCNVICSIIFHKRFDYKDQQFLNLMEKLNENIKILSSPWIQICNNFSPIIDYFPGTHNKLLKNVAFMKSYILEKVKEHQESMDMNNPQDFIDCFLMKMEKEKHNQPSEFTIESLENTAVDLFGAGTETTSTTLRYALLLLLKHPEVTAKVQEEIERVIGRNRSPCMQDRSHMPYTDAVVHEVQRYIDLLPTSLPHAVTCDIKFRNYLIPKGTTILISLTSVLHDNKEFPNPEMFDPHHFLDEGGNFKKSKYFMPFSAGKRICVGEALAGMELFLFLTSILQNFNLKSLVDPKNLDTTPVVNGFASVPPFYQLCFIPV
# Muscarinic acetylcholine receptor M3, sequence (P20309 whole entry): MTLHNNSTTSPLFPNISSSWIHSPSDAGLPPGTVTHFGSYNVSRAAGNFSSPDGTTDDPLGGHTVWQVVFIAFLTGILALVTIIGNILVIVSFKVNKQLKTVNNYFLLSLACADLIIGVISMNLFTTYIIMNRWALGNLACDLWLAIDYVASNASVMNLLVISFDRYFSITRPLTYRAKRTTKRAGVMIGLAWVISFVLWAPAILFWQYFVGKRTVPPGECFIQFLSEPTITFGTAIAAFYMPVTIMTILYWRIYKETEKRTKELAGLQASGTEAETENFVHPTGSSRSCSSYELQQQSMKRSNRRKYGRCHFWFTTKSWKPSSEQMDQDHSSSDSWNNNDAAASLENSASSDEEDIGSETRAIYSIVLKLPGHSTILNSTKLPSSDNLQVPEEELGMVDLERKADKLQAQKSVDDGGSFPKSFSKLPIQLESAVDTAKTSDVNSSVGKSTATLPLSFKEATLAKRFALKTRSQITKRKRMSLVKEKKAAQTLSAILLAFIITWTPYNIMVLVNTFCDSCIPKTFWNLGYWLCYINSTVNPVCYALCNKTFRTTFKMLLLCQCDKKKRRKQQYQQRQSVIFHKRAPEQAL
IC50 [1] [µM],IC50 [2] [µM],IC50 [4] [µM],Ki [7] [µM],Fa [8] [%],Ki [9] [µM],bioavailability [10] [%],half-life [11] [h],Ki [12] [µM],clearance [13] [mL/min/kg],fraction unbound [14],Vd [15] [L/kg],Ki [16] [µM],IC50 [18] [µM],IC50 [19] [µM],fraction unbound [20],microsomal CLint at 0.5 µM [22] [µL/min/mg],hepatic extraction ratio [23],IC50 [24] [µM],Structure (SMILES),IC50 [21] [µM],other results
> 3,> 3,> 3,0.245,79,0.00126,73,1.5,0.0631,20,0.0025,1.1,0.11,> 3,> 3,0.014,43,0.07,> 3,Cc1ncoc1-c1nnc(SCCCN2CC3CCN(c4ccc(C(F)(F)F)cc4F)C3C2)n1C (stereo in doubt; 8b),0.398,Ki [3]: 0.0501 µM; efflux ratio [5]: 0.55; Ki [6]: 0.00158 µM; Papp A→B [17]: 5.5 ×10⁻⁶ cm/s; microsomal CLint at 0.5 µM [25]: 177 µL/min/mg
> 20,> 20,> 20,1.1,5,0.00794,3,2.1,0.631,37,0.044,4.2,1.74,> 20,> 20,0.022,47,0.4,> 20,Cn1c(SCCCN2CC3CCN(c4ccc(C(F)(F)F)cc4)C3C2)nnc1-c1cc[nH]c(=O)c1 (stereo in doubt; 55b),2.51,Papp A→B [26]: 4.2 ×10⁻⁶ cm/s; solubility [27]: 200 µg/mL; efflux ratio [28]: 3.8; Ki [29]: 15.8 µM; microsomal CLint at 0.5 µM [25]: 33 µL/min/mg
